The results in this text go back to patent US6150385A, “1,3,4-thiadiazoles useful for the treatment of CMV infections” (Pharmacia & Upjohn Company, priority 1999, dated 2000).

The experiment deals with T1, HCMV polymerase (Human cytomegalovirus, UniProt P08546).
T1 construct: made in house; host or cells: SF-9 insect cells infected with recombinant baculovirus
T1 sequence (P08546 whole entry): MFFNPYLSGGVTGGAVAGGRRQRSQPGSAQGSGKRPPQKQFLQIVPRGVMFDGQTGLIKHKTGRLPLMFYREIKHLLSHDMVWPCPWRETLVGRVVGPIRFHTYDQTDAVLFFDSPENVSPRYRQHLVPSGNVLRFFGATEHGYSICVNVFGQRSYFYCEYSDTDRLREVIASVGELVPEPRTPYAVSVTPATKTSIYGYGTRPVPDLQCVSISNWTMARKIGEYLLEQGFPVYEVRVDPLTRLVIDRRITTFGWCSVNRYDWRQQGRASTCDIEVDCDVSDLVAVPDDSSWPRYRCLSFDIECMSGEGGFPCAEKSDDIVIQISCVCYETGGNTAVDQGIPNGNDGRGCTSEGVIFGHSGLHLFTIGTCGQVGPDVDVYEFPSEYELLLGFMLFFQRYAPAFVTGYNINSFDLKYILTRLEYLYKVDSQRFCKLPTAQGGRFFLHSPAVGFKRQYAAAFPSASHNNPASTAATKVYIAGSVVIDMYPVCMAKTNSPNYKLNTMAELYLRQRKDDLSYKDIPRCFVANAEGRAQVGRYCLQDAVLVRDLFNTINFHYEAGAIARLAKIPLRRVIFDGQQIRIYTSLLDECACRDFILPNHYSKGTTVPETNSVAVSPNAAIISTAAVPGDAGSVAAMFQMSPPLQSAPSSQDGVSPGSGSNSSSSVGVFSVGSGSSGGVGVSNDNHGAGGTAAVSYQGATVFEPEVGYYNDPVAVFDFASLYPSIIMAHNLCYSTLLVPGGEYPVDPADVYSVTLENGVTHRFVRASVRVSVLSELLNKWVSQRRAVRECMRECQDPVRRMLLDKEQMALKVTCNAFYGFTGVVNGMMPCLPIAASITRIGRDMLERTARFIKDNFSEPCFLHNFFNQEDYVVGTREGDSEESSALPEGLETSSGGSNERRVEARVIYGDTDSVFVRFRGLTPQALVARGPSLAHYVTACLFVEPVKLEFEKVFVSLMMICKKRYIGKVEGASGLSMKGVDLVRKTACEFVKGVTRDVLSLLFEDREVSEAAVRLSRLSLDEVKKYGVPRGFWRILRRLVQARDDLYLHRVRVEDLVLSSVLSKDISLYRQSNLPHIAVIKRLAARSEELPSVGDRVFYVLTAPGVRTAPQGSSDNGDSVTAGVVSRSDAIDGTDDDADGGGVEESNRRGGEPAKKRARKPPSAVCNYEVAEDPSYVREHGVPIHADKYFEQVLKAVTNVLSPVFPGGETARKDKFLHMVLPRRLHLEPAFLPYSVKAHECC
The experiment can be described thus: HCMV polymerase assay (scintillation proximity assay). To be noted: percentage of inhibition at 25 μM concentration in CMV polymerase assay. It counts as biochemical. A digest of the protocol:
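Values are percent inhibition at 25 μM, measured by scintillation proximity after capture of biotinylated poly(dA)-oligo(dT) (6 nM) extended with 90 nM 3H-dTTP. Recombinant SF-9-derived enzyme reacted 30 min at 25 or 37 °C in HEPES pH 7.5/KCl/MgCl2/BSA buffer, ±2 mM CHAPS, before EDTA termination.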
Background: In a scintillation proximity assay essentially only radioactivity close to the scintillant gives light.
As a reminder, the inhibition is the percentage by which the read-out fell short of the control. Low values mean little suppression, high ones strong suppression. Turning to `CCCCCCCC/C=C/CCCCCCCC(=O)Nc1nnc(NC2CCN(Cc3ccccc3)CC2)s1` [compound 253, (E)-N-{5-[(1-benzyl-4-piperidinyl)amino]-1,3,4-thiadiazol-2-yl}-9-octadecenamide], 25 µM produced 40.1% inhibition.
The compound `O=C(Nc1nnc(NCCC(c2ccccc2)c2ccccc2)s1)c1ccc2c(c1)C(=O)OC2=O` [compound 13, N-{5-[(3,3-diphenylpropyl)amino]-1,3,4-thiadiazol-2-yl}-1,3-dioxo-1,3-dihydro-2-benzofuran-5-carboxamide] came in with an inhibition at 25 µM of 99.3%.
The same measure, in the same setting: in the case of `O=C(CCCCCl)Nc1nnc(NCCCN2CCCC2=O)s1` [compound 325, 5-chloro-N-(5-{[3-(2-oxo-1-pyrrolidinyl)propyl]amino}-1,3,4-thiadiazol-2-yl)pentanamide] it was 32.8%; in that of `O=C(CCCCCl)Nc1nnc(NCC2CCCCC2)s1` [compound 315, 5-chloro-N-{5-[(cyclohexylmethyl)amino]-1,3,4-thiadiazol-2-yl}pentanamide], 33.8%.
Consider `NS(=O)(=O)c1ccc(CNc2nnc(NC(=O)c3ccc(Cl)c(Cl)c3)s2)cc1` [compound 311, N-(5-{[4-(aminosulfonyl)benzyl]amino}-1,3,4-thiadiazol-2-yl)-3,4-dichlorobenzamide], for which the inhibition at 25 µM came to 33.9%.
Still for that read-out and setting: in the case of `CCOc1ccc2ccccc2c1C(=O)Nc1nnc(NCc2ccc(S(N)(=O)=O)cc2)s1` [compound 26, N-(5-{[4-(aminosulfonyl)benzyl]amino}-1,3,4-thiadiazol-2-yl)-2-ethoxy-1-naphthamide] it was 93.1%.
Still for that read-out and setting: in the case of `O=C(Nc1nnc(NCCc2c[nH]c3ccccc23)s1)c1ccc([N+](=O)[O-])o1` [compound 47, N-(5-{[2-(1H-indol-3-yl)ethyl]amino}-1,3,4-thiadiazol-2-yl)-5-nitro-2-furamide] it was 81.6%.
Same read-out and setting: in the case of `CCCCCCCC/C=C/CCCCCCCC(=O)Nc1nnc(NC[C@@H]2CCC3CC2C3(C)C)s1` (stereo partly drawn) [compound 166, (E)-N-[5-({[(2R)-6,6-dimethylbicyclo[3.1.1]hept-2-yl]methyl}amino)-1,3,4-thiadiazol-2-yl]-9-octadecenamide] it was 51.1%.
`O=C(Nc1nnc(NCCCCc2ccccc2)s1)c1ccc(F)cc1F` [compound 197, 2,4-difluoro-N-{5-[(4-phenylbutyl)amino]-1,3,4-thiadiazol-2-yl}benzamide] had an inhibition at 25 µM of 46.2%.
Still for that read-out and setting: in the case of `CC(C)(C)CNc1nnc(NC(=O)/C=C/c2ccccc2Cl)s1` [compound 319, (E)-3-(2-chlorophenyl)-N-[5-(neopentylamino)-1,3,4-thiadiazol-2-yl]-2-propenamide] it was 33.5%.
Same read-out and setting: in the case of `CC(C)c1cc(C(C)C)c(C(=O)Nc2nnc(NCCC3CCCN3C)s2)c(C(C)C)c1` (centres unmarked) [compound 109, 2,4,6-triisopropyl-N-(5-{[2-(1-methyl-2-pyrrolidinyl)ethyl]amino]-1,3,4-thiadiazol-2-yl)benzamide] it was 63.4%; in that of `CC(=O)NCCNc1nnc(NC(=O)c2c(C(C)C)cc(C(C)C)cc2C(C)C)s1` [compound 332, N-(5-{[2-(acetylamino)ethyl]amino}-1,3,4-thiadiazol-2-yl)-2,4,6-triisopropylbenzamide], 32%.
Consider `O=C(/C=C/c1ccccc1)Nc1nnc(NCCc2cccs2)s1` [compound 77, (E)-3-phenyl-N-(5-{[2-(2-thienyl)ethyl]amino}-1,3,4-thiadiazol-2-yl)-2-propenamide], for which at 25 µM the inhibition was 68.3%.
Regarding `O=C(Nc1nnc(NCc2cccnc2)s1)c1c(Cl)cccc1Cl` [compound 156, 2,6-dichloro-N-{5-[(3-pyridinylmethyl)amino]-1,3,4-thiadiazol-2-yl}benzamide], the inhibition at 25 µM was 53.2%.
`O=C(Nc1nnc(NCc2ccc3c(c2)OCO3)s1)c1ccc(I)cc1` [compound 459, N-{5-[(1,3-benzodioxol-5-ylmethyl)amino]-1,3,4-thiadiazol-2-yl}-4-iodobenzamide] showed an inhibition at 25 µM of 20.7%.
As to `COc1ccc(CNc2nnc(NC(=O)c3ccc(I)cc3)s2)cc1OC` [compound 134, N-{5-[(3,4-dimethoxybenzyl)amino]-1,3,4-thiadiazol-2-yl}-4-iodobenzamide], testing at 25 µM gave an inhibition of 56.9%.
Still for that read-out and setting: in the case of `O=C(Nc1nnc(NCc2ccco2)s1)c1ccc(I)cc1` [compound 341, N-{5-[(2-furylmethyl)amino]-1,3,4-thiadiazol-2-yl}-4-iodobenzamide] it was 31.3%.
As to `CCCCCCCC/C=C/CCCCCCCC(=O)Nc1nnc(NCCCCc2ccccc2)s1` [compound 108, (E)-N-{5-[(4-phenylbutyl)amino]-1,3,4-thiadiazol-2-yl}-9-octadecenamide], at 25 µM the inhibition was 63.5%.
Same read-out and setting: in the case of `O=C(Nc1nnc(NCc2ccc3c(c2)OCO3)s1)c1c(Cl)cccc1Cl` [compound 96] it was 65.9%; in that of `O=C(Nc1nnc(NCc2ccc(F)cc2)s1)c1cc2ccccc2s1` [compound 361, N-{5-[(4-fluorobenzyl)amino]-1,3,4-thiadiazol-2-yl}-1-benzothiophene-2-carboxamide], 28.8%.
The same measure, in the same setting: in the case of `O=C(Nc1nnc(NCC(c2ccccc2)c2ccccc2)s1)c1ccc(F)cc1F` [compound 182, N-{5-[(2,2-diphenylethyl)amino]-1,3,4-thiadiazol-2-yl}-2,4-difluorobenzamide] it was 48.2%; in that of `CCOc1ccc2ccccc2c1C(=O)Nc1nnc(NCc2ccc(F)cc2)s1` [compound 71, 2-ethoxy-N-{5-[(4-fluorobenzyl)amino]-1,3,4-thiadiazol-2-yl}-1-naphthamide], 69.8%; in that of `O=C(Nc1nnc(NCCC(c2ccccc2)c2ccccc2)s1)c1ccc([N+](=O)[O-])o1` [compound 298, N-{5-[(3,3-diphenylpropyl)amino]-1,3,4-thiadiazol-2-yl}-5-nitro-2-furamide], 35%.
Still for that read-out and setting: in the case of `O=C(/C=C/c1ccccc1Cl)Nc1nnc(NCCCn2ccnc2)s1` [compound 221, (E)-3-(2-chlorophenyl)-N-(5-{[3-(1H-imidazol-1-yl)propyl]amino}-1,3,4-thiadiazol-2-yl)-2-propenamide] it was 43.5%.
`CCOc1ccc2ccccc2c1C(=O)Nc1nnc(NCCSCC)s1` [compound 318, 2-ethoxy-N-(5-{[2-(ethylsulfanyl)ethyl]amino}-1,3,4-thiadiazol-2-yl)-1-naphthamide] returned an inhibition at 25 µM of 33.6%.
Same read-out and setting: in the case of `N#Cc1ccc(C(=O)Nc2nnc(NCc3cccc4ccccc34)s2)cc1` [compound 155, 4-cyano-N-{5-[(1-naphthylmethyl)amino]-1,3,4-thiadiazol-2-yl}benzamide] it was 53.3%; in that of `CCOc1ccc2ccccc2c1C(=O)Nc1nnc(NC[C@@H]2CCC3CC2C3(C)C)s1` (stereo partly drawn) [compound 261, N-[5-({[(2R)-6,6-dimethylbicyclo[3.1.1]hept-2-yl]methyl}amino)-1,3,4-thiadiazol-2-yl]-2-ethoxy-1-naphthamide], 39.5%.
Regarding `O=C(Nc1nnc(NCCC(c2ccccc2)c2ccccc2)s1)c1ccc(S(=O)(=O)F)cc1` [compound 217, 4-[({5-[(3,3-diphenylpropyl)amino]-1,3,4-thiadiazol-2-yl}amino)carbonyl]benzenesulfonyl fluoride], the “% Inhib” value was 43.9%.
`N#Cc1ccc(C(=O)Nc2nnc(NCC3CCCCC3)s2)cc1` [compound 364, 4-cyano-N-{5-[(cyclohexylmethyl)amino]-1,3,4-thiadiazol-2-yl}benzamide] gave an inhibition at 25 µM of 28.7%.
On the same count and under the same terms, in the case of `CCCCCCCC/C=C/CCCCCCCC(=O)Nc1nnc(NCCc2c[nH]cn2)s1` [compound 391, (E)-N-(5-{[2-(1H-imidazol-4-yl)ethyl]amino}-1,3,4-thiadiazol-2-yl)-9-octadecenamide] it was 26.2%; in that of `O=C(Nc1nnc(NCCc2cccs2)s1)c1cccc([N+](=O)[O-])c1` [compound 337, 3-nitro-N-(5-{[2-(2-thienyl)ethyl]amino}-1,3,4-thiadiazol-2-yl)benzamide], 31.6%; in that of `O=C(/C=C/c1ccccc1Cl)Nc1nnc(NCc2ccncc2)s1` [compound 352, (E)-3-(2-chlorophenyl)-N-[5-[(4-pyridinylmethyl)amino]-1,3,4-thiadiazol-2-yl}-2-propenamide], 30.2%.
Turning to `Cc1ccc(C(=O)Nc2nnc(NCC3CCCCC3)s2)cc1` [compound 449, N-{5-[(cyclohexylmethyl)amino]-1,3,4-thiadiazol-2-yl}-4-methylbenzamide], the inhibition at 25 µM stood at 21.5%.
Take `CCOc1ccc2ccccc2c1C(=O)Nc1nnc(NCCCNC2CCCCC2)s1` [compound 27, N-(5-{[3-(cyclohexylamino)propyl]amino}-1,3,4-thiadiazol-2-yl)-2-ethoxy-1-naphthamide]: testing at 25 µM gave an inhibition of 92.9%.
Same read-out and setting: in the case of `CC1(C)C2CC[C@@H](CNc3nnc(NC(=O)c4cc(F)cc(F)c4)s3)C1C2` (stereo partly drawn) [compound 389, N-[5-({[(2R)-6,6-dimethylbicyclo[3.1.1]hept-2-yl]methyl}amino)-1,3,4-thiadiazol-2-yl]-3,5-difluorobenzamide] it was 26.5%; in that of `CCOc1ccc2ccccc2c1C(=O)Nc1nnc(NCCCCc2ccccc2)s1` [compound 231, 2-ethoxy-N-{5-[(4-phenylbutyl)amino]-1,3,4-thiadiazol-2-yl}-1-naphthamide], 42.3%.
On the same count and under the same terms, in the case of `O=C(Nc1nnc(NCCNc2ccccc2)s1)c1ccc(Cl)c(Cl)c1` [compound 408, N-{5-[(2-anilinoethyl)amino]-1,3,4-thiadiazol-2-yl}-3,4-dichlorobenzamide] it was 24.9%.
Same read-out and setting: in the case of `CC(C)c1cc(C(C)C)c(C(=O)Nc2nnc(NCCc3cccs3)s2)c(C(C)C)c1` [compound 396, 2,4,6-triisopropyl-N-(5-{[2-(2-thienyl)ethyl]amino}-1,3,4-thiadiazol-2-yl)benzamide] it was 25.9%.
